Entries after “also recorded” stand apart in the source; their conditions may differ. One block for each compound: values may come before it.
Assays:
eNOS expression = eNOS expression by Western blot in ACE cells; format: cell-based, bovine; settings: for eNOS expression, time course: 0-5 days, VEGF alone or co-incubated with L-NAME (2 mM) or SNAP; for effect of signalling inhibitors on VEGF-induced eNOS expression: with 500 pM rhVEGF; for effect on VEGF-induced eNOS expression, KDR tyrosine kinase inhibitor: co-incubated with 500 pM rhVEGF; for eNOS expression with angiogenic factors / eNOS expression with KDR-specific VEGF variants: 500 pM; for eNOS expression with VEGF forms and receptor-selective variants: equal concentrations, two days
Experimental: At the end of incubation, total cell lysates were prepared, and eNOS protein levels were determined by Western blot analysis.
Bovine adrenal cortex capillary endothelial cells (ACE) were prepared and maintained as previously described (Ferrara et.al., 1989 Biochem. Biophys. Res. Commun. 161:851–858). Briefly, cells were plated onto 6-well tissue culture plates (Costar) and grown in low glucose Dulbecco's modified Eagle's medium, supplemented with 2 mM […] (Life Technologies), 10% bovine calf serum (HyClone Lab., Inc.) and 100 μg/ml Penicillin/Streptomycin (Life Technologies). ACE cells were used between passages 4 and 8.
Medium was changed every 24 hours.
The methods for cell lysis and Western blot (WB) have been described in Shen et al., 1998 J. Biol. Chem. 273:29979–29985. A monoclonal anti-eNOS antibody was used at 1:2500 to probe eNOS protein. A secondary antibody conjugated with horseradish peroxidase (1:2500) (Zymed) and an enhanced chemiluminescent kit (Amershal Pharmacia Biotech) were used to visualize the eNOS immunoreactive bands. Multiple exposures of films were obtained to determine the optical exposure time. The protein bands were scanned by a densitometer and the relative intensities were quantified using IMAGEQUANT® software (Molecular Dynamics).
(§1) Confluent ACE cells were incubated with 500 pM rhVEGF. Total cell lysates were prepared as described above. Equal amounts of protein were denatured under reducing conditions and separated in a 10% Novex mini gel and transferred to PVDF membrane. eNOS protein signals were visualized by ECL and quantified using densitometry.

Flt-1 receptor [1] = test: Flt-1 receptor binding ELISA (inhibition of biotinylated native VEGF binding to Flt-IgG); settings: first figure of the cell, read-out: Binding to FLT-1 Receptor, concentration at midpoint absorbance
Sequence of Flt-1 receptor (P17948 27-327 limits assumed): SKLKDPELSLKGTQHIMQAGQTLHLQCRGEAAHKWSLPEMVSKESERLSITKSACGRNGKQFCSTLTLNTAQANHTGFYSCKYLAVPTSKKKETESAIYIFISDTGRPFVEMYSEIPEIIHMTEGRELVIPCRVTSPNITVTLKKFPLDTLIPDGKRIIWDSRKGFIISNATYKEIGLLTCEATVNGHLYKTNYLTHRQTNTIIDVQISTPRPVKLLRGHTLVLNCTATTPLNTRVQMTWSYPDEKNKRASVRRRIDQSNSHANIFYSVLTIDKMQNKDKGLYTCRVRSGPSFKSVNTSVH
Experimental: Receptor binding assays were performed in 96-well immunoplates (Maxisorp, Nunc-Immunoplate, Nalge Nunc International, Rochester, N.Y.). Each well was coated with 100 μl of a solution containing 2 μg/ml of rabbit F(ab′)2 to human IgG Fc (Jackson ImmunoResearch, West Grove, Pa.) in 50 mM carbonate buffer at pH 9.6 and incubated at 4° C. overnight. The supernatant was then discarded, the wells were washed three times in washing buffer (0.05% Tween 20 in PBS), and the plate was blocked (150 μl per well) with block buffer (0.5% BSA, 0.01% thimerosal in PBS) at room temperature for one hour. The supernatant was discarded, and the wells were washed.
The wells were filled with 100 μl of a solution containing Flt-IgG (a chimeric Flt-human Fc molecule) at 50 ng/ml in assay buffer (0.5% BSA, 0.05% Tween 20 in PBS). The wells were incubated at room temperature for 1 hour and then washed three times in wash buffer (0.05% Tween 20 in PBS).
Aliquots of the mixture (100 μl) were added to the precoated microtiter wells and the plate was incubated for 2 hours at room temperature. […] Absorbance was read at 450 nm on a Vmax plate reader (Molecular Devices, Menlo Park, Calif.).
Titration curves were fit with a four-parameter nonlinear regression curve-fitting program (KaleidaGraph, Synergy Software, Reading, Pa.).

PAE/FLT-1 cells = settings: 500 pM rhVEGF, 2 days
Experimental: Porcine aorta endothelial (PAE) cells, and receptor transfected PAE cells (PAE/KDR and PAE/FLT-1) were provided by Napoleone Ferrara (Genentech, Inc.) and cultured in Ham's F-12 medium containing 10% FBS (for PAE), or plus 250 μg/ml G480 (for PAE/KDR and PAE/FLT-1).
PAE, PAE/KDR and PAE/Flt-1 cells were incubated with or without 500 pM rhVEGF for 2 days. eNOS was detected as described above for Example 1. Other materials and methods used in this study were as described above for Example 1.

[2] = angina patients, prolonged time point, early results
Source text: Luscher TF (1992) Br. J. Clin. Pharmacol. 34 Suppl. 1:29S–35S.

KDR receptor = biological target: T1, KDR receptor (Homo sapiens, UniProt P35968); test: RIA binding assay, KDR receptor
T1 construct: host or cells: CHO cells
T1 sequence (P35968 20-1356): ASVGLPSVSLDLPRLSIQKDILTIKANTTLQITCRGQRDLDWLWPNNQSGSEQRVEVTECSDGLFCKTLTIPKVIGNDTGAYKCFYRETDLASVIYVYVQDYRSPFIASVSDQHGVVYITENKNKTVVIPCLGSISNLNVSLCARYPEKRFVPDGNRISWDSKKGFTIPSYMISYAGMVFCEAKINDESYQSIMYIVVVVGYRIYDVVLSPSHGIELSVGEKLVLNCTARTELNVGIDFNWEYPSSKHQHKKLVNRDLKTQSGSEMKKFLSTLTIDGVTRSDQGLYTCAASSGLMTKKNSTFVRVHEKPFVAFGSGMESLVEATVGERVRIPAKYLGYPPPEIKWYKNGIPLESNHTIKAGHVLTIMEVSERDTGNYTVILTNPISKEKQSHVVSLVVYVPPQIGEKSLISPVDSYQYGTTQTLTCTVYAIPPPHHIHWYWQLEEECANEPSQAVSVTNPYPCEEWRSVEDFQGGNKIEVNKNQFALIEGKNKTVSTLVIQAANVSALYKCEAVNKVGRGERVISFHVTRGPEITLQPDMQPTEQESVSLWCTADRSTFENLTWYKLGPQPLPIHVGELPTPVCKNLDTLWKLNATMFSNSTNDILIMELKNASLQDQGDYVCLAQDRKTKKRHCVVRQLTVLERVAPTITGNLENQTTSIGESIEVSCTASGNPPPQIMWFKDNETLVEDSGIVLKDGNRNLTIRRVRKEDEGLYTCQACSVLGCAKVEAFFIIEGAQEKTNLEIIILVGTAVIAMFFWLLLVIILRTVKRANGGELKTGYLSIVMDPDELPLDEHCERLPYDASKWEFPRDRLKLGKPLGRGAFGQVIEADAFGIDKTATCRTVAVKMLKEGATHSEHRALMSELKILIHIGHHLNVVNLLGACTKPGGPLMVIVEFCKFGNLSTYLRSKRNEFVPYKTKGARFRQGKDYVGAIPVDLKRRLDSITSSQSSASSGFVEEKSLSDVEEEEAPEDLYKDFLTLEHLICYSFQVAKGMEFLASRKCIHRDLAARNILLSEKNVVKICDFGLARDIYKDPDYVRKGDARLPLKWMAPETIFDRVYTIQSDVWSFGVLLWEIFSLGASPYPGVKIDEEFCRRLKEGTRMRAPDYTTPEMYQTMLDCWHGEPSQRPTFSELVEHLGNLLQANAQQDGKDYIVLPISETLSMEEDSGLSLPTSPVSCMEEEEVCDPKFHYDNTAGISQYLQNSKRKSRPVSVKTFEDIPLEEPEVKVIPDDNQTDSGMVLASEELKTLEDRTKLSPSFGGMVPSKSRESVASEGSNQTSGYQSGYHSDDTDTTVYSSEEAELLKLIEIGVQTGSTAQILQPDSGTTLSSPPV

eNOS activity = settings: ACE cells
Experimental: as §1

PKC = settings: ACE cells, rhVEGF 500 pM, 10 minutes
Experimental: Cytosolic and membrane fractions were prepared to investigate the re-distribution or PKC isoforms. […] (See FIG. 5A).

eNOS = test: Association of proteins with eNOS (immunoprecipitation, Western blot) in endothelial cells; settings: VEGF 1-60 minutes
[3] = coronary artery disease patients, intracoronary or intravenous infusion at 0.05 microgram/Kg body weight/minute
Source text: In one aspect, the invention provides methods for treating a NO associated disorder or condition such as hypertension, diabetes, thrombosis, angina, heart failure or atherosclerosis.

Flt-1 receptor [4] = biological target: Flt-1 receptor (Homo sapiens, UniProt P17948); test: RIA binding assay, FLT-1 receptor
Sequence of Flt-1 receptor (Homo sapiens, UniProt P17948) (P17948 27-1338): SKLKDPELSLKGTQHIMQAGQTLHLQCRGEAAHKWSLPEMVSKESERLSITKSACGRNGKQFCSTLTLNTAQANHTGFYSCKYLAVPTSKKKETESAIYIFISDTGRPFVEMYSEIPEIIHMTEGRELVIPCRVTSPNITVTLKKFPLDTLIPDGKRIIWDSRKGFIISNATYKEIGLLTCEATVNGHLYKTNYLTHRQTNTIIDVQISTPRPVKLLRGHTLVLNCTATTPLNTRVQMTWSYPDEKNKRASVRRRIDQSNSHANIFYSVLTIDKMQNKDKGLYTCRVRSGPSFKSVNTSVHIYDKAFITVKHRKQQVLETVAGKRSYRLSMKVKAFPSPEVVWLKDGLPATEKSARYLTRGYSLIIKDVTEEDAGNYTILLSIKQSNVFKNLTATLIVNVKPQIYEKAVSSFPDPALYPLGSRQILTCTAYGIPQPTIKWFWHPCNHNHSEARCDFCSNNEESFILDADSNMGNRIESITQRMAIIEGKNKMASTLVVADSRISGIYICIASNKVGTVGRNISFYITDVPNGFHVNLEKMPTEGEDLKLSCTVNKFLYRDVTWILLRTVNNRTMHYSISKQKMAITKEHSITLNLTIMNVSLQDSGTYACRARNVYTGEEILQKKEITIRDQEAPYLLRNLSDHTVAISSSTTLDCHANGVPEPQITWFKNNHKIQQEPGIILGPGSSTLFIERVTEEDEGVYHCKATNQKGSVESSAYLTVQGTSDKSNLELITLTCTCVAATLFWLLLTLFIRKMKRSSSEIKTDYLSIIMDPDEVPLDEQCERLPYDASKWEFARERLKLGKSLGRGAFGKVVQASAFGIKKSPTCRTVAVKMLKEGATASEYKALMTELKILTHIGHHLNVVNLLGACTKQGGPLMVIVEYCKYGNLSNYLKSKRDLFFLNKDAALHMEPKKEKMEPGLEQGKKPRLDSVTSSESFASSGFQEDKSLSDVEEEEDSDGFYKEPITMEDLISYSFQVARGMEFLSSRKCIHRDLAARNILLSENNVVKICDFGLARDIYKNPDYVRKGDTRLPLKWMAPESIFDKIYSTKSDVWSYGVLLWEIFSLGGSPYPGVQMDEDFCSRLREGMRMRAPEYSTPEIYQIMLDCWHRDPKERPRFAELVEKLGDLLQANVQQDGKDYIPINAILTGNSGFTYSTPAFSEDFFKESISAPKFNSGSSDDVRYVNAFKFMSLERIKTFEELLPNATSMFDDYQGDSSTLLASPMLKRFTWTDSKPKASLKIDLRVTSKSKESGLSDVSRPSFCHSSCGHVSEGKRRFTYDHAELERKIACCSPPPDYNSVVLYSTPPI
Source text: The results are shown below in Table 6.

Compound: COC(=O)[C@@H](N)CCCNC(=N)N[N+](=O)[O-] [L-NAME, L-N^G-Nitroarginine methyl ester, reference compound]
eNOS expression, time course (eNOS expression): sustained increase

Compound: CCCCCCCCCCCCCC(=O)O[C@@H]1[C@@H](C)[C@@]2(O)[C@@H](C=C(CO)C[C@]3(O)C(=O)C(C)=C[C@@H]23)[C@@H]2C(C)(C)[C@]12OC(C)=O [PMA, phorbol 12-myristate 13-acetate, reference compound]
eNOS levels after PKC activation (eNOS expression): time-dependent (FIG. 5C) and dose-dependent (data not shown) increase in eNOS levels; also recorded: increased eNOS levels

Compound: Cc1ccc(-c2nn(C(C)(C)C)c3ncnc(N)c23)cc1 [PP1, reference compound]
effect of signalling inhibitors on VEGF-induced eNOS expression (eNOS expression; 2 days): also blocked eNOS expression

Compound: CC(C)c1cc(/C=C(\C#N)C(=O)NCCCc2ccccc2)cc(C(C)C)c1O [SU1498, reference compound]
effect on VEGF-induced eNOS up-regulation at high concentration (eNOS expression; 100 μM, 500 pM rhVEGF, 2 days): completely blocked
effect on VEGF-induced eNOS expression, KDR tyrosine kinase inhibitor (eNOS expression; 2 days): dose-dependent prevention
effect on VEGF-induced eNOS expression, KDR tyrosine kinase inhibitor (eNOS expression; 2 days, listed as SU-149 g): dose dependent inhibition

Compound: COC[C@H]1OC(=O)c2coc3c2[C@@]1(C)C1=C(C3=O)[C@@H]2CCC(=O)[C@@]2(C)C[C@H]1OC(C)=O [Wortmannin, wortmannin, reference compound]
effect of signalling inhibitors on VEGF-induced eNOS expression (eNOS expression; 2 days): no significant effect

Compound: O=c1c(-c2ccc(O)cc2)coc2cc(O)cc(O)c12 [genistein, reference compound]
effect of signalling inhibitors on VEGF-induced eNOS expression (eNOS expression; 2 days): blocked VEGF-induced eNOS expression

Compound: CO[C@H]1[C@@H](OC)C[C@H](C)[C@@H](OC)C2=CC(=O)C=C(NC(=O)/C(C)=C/C=C\[C@H](OC)[C@@H](OC(N)=O)/C(C)=C/[C@@H]1C)C2=O [herbimycin A, reference compound]
effect of signalling inhibitors on VEGF-induced eNOS expression (eNOS expression; 2 days): blocked VEGF-induced eNOS expression

Compound: EGF: recombinant human epidermal growth factor (NSDSECPLSHDGYCLHDGVCMYIEALDKYACNCVVGYIGERCQYRDLKWWELR; Epidermal growth factor; UniProt P01133 971-1023, looked up)
eNOS expression with angiogenic factors (eNOS expression; 2 days): no significant effect

Compound: FGF: Recombinant human fibroblast growth factor (FGF) basic
eNOS expression with angiogenic factors (eNOS expression; 2 days): no significant effect

Compound: HGF: heterodimeric form of recombinant human hepatocyte growth factor
eNOS expression with angiogenic factors (eNOS expression; 2 days): capable of increasing eNOS expression

Compound: LK-VRB-2f: full length 1-165 VEGF variant, D63S/G65M/L66R
eNOS expression with KDR-specific VEGF variants (eNOS expression; 2 days): markedly up-regulated eNOS expression

IC50 (Flt-1 receptor [1]): > 400000 pM
Compound: LK-VRB-2s*: VEGF (1-109) variant, D63S/G65M/L66R
eNOS expression with KDR-specific VEGF variants (eNOS expression; 2 days): markedly up-regulated eNOS expression

Compound: TGF-beta1: recombinant human transforming growth factor
eNOS expression with angiogenic factors (eNOS expression; 2 days): reduced endogenous eNOS expression

Compound: VEGF
eNOS up-regulation in PAE/FLT-1 cells (PAE/FLT-1 cells): not in FLT-1 transfected PAE (PAE/FLT) cells; also recorded: not in FLT-1 containing PAE cells
eNOS expression, time course (eNOS expression): time-dependent but transient increase; also recorded: time-dependent increase in eNOS expression
eNOS expression with KDR-specific VEGF variants (eNOS expression; 2 days): induced a similar degree of eNOS expression
peak eNOS expression (eNOS expression; 2 days (48 hours) post exposure to 500 pM VEGF): 5.5 fold
concentration giving maximal increase of eNOS (eNOS expression; dose-dependent up-regulation): 500 pM
eNOS expression with VEGF forms and receptor-selective variants (eNOS expression; listed as VEGF165): induced a similar degree of eNOS expression; also recorded: induce eNOS up-regulation
angina class, angina frequency, treadmill times versus placebo [2]: trends of improvement
Relative Binding Affinity KDR Receptor (KDR receptor): 1 (97 pM)
eNOS activity, acute treatment (eNOS activity; 0-60 min): time-dependent increase
eNOS activity in treated cells versus untreated control cells (eNOS activity; 2 days VEGF): about 5 fold
re-distribution of PKC isoforms from cytosolic to membrane fractions (PKC): rapid re-distribution
eNOS association levels of caveolin and PLC-γ (eNOS): significantly reduces; also recorded: induces dissociation
levels of Hsp90 and Hsp70 associated with eNOS (eNOS): increase the levels of Hsp90 and Hsp70 associated with eNOS; also recorded: increase association
mean arterial pressure [3]: dose-rate dependent reduction in mean arterial pressure
Relative Binding Affinity FLT-1 Receptor (Flt-1 receptor [4]; relative to Native VEGF 165): 1
IC50 (Flt-1 receptor [4]; value in brackets, read-out: Binding affinity FLT-1 Receptor): 37 pM

Compound: VEGF110: heparin binding domain-deficient variant made from VEGF165 by limited proteolytic digestion with plasmin
eNOS expression with KDR-specific VEGF variants (eNOS expression; 2 days): induced a similar degree of eNOS expression
eNOS expression with VEGF forms and receptor-selective variants (eNOS expression): induced a similar degree of eNOS expression; also recorded: induce eNOS up-regulation
